Data as given in patent US20180368393A1, “PRE- AND POST-STORAGE STRESS RESPONSE CONDITIONING” (CPSI HOLDINGS LLC, priority 2017, published 2018).
“Also recorded” adds a separate entry of the source. Where a SMILES comes first, the peptide text is derived from it. The star is where a group is joined. Cbz = O=C(OCc1ccccc1)*; CH2F = FC*

How the values were obtained:
human endothelial cells = experiment: Human endothelial cell monolayer survival and repopulation following cryopreservation (Calcein-AM assay); format: cell-based; settings: for post-thaw viability: P/P conditioning, U10 and U5G10 CP solutions vs matched non-treated samples; for day 1 survival increase over non-treated samples: U10G10
Description: A series of cryopreservation experiments was conducted on human endothelial and smooth muscle cell suspensions and monolayers to assess the performance of four (4) commercially available cryopreservation solutions: DP6, VS55, VS83, and M22, as well as nine (9) additional solutions: […] Eurocollins (EC) solution was included as a negative control, i.e., no cryoprotective agent (CPA) control, while media+10% DMSO ([…]) is a typical solution (10% DMSO) used in standard controlled rate cryopreservation protocols known to the skilled individual. Unisol is representative of the class of intracellular-like or intracellular-type solutions/media, whereas EC solution and culture media are representative of the class of extracellular-like or extracellular-type solutions/media. Other studies presented herein provide additional examples of intracellular- and extracellular-like solutions; other intracellular- and extracellular-like solutions are similarly useful and are known to those of skill in the art. FIG. 1 illustrates the results of an assessment of human endothelial cell survival following preservation. Monolayers of endothelial cells were frozen or vitrified and thawed in the indicated solutions (control, Uni, […], DP6, VS55, VS83, and […]). Following thawing, samples were diluted in culture media, placed into culture and assessed for viability at 1 day (24 hours) post-thaw and following seven (7) days of recovery using the Calcein-AM assay. […] The Uni and U10 conditions provided outcomes exceeding that of the VS55, VS83 and […] conditions. Therefore, subsequent studies (see, e.g., FIG. 2) focused on Unisol-based solutions with various CPAs and concentrations, in addition to the DP6 commercial cryopreservation solution. […] Monolayers of endothelial cells were frozen or vitrified and thawed in the indicated solutions. […] For pre-freeze (PF), post-warming (PW) and pre/post (P/P) conditioning studies, molecular modulation agents targeting inhibition of apoptosis (Caspase inhibitor IV, 8, 9 and a combination of Caspases 8 and 9), reduction of free-radical damage (resveratrol and NAC), and activation of the unfolded protein response (salubrinal) were employed as supplements in the media 1 hour prior to freezing (pre-freeze condition) or for 1 day following thawing and CPA removal from frozen samples (post-warming condition). Based on outcomes in the studies in Example 1, PF, PW and P/P conditioning were examined in Examples 2-3 using a series of Unisol-based solutions (Uni, U5, U10, U20, UG10, U5G10 and U10G10). […] Patent Application Publication No. US 2016/0097583 A1 (Ser. No. 14/876,087), which is incorporated by reference in its entirety as though fully set forth herein. The freeze and thaw process was slightly modified relative to the disclosure of U.S. Patent Application Publication No. US 2016/0097583 A1 by the addition of a 0.090 inch aluminum plate inserted into the bottom of the 96 well plate to aid in increasing cooling and heating uniformity throughout the plate, thereby reducing the well-to-well variability within the samples. The device was used to thaw the samples, which were frozen in situ in monolayers in standard 96-well tissue culture plates. […] A mitochondrial-mediated apoptotic inhibitor (Caspase 9) and a membrane-mediated apoptotic inhibitor (Caspase 8) were investigated to evaluate the involvement and impact of modulation of various apoptotic induction pathways. Additionally, a pan-Caspase inhibitor (Cas IV) was also investigated to assess the impact of global pathway modulation. As with the viability studies, cell survival and repopulation were assessed using Calcein-AM assays and analyzed using fluorescent microscopy (Zeiss). Survival was determined at 24 hours post-thaw to allow for the manifestation of any delayed onset cell death pathways to be executed. Further, cell recovery was included to evaluate the long term potency and repopulation potential of the various samples. […]

[1] = test system: human smooth muscle cells; experiment: Human smooth muscle cell monolayer survival and repopulation following cryopreservation (Calcein-AM assay); format: cell-based
Description: (§1) The device was used to thaw the samples, which were frozen in situ in monolayers in standard 96-well tissue culture plates. Samples were thawed from less than −170° C. to about 4° C. in the 96-well plate format in about 5 mins in a dry clean (“sterile”) environment.
The study described in example 3.1 focuses on the collection of cell survival data and the impact of post-thaw conditioning on human smooth muscle cells (SMCs). Specific activities included application of the high throughput monolayer sample cryopreservation protocol and collection of data (survival and cell death) from samples frozen using 6 unique cryopreservation solutions (U5, U10, U20, U5G10, U10G10, DP6) and 6 unique modulators (resveratrol, salubrinal, caspase inhibitors (IV, 8, 9) and NAC). Survival was determined at 24 hours post-thaw to allow for the manifestation of any delayed onset cell death pathways to be executed. Further, cell recovery was included to evaluate the long term potency and repopulation potential of the various samples.
A series of experiments was conducted to evaluate the performance of several solutions (U5, U10, U20, U5G10, U10G10 and DP6) as well as the impact of pre-freeze (PF) and post-warming (PW) conditioning with the apoptotic inhibitors Caspase 8, Caspase 9 and Caspase IV inhibitors. Cell samples were processed using the monolayer CP protocol and analyzed following 24 hours to 7 days post thaw for survival and recovery. These experiments were conducted to evaluate the impact of molecular modulators (inhibitors) during pre-freeze or post-thaw recovery on cell survival when added to the media 1 hour prior to or 24 hour following cryopreservation. […] To this end, samples were probed with Calcein-AM, incubated for 30 mins in the dark and then imaged using a Zeiss Axiovert 200 fluorescence microscope and Axiovision software. Images were taken at 24 hours to 7 days post-thaw to allow for assessment of solution and post-thaw conditioning agent performance.
As in previous experiments, the 24 hour time point was used for initial survival assessment, as this time point allows for the manifestation of molecular based cell stress-induced death. This provides a more accurate measure of survival than 0 or 1 hour post-thaw assessment, as is typically used. The 3 day time point was selected to assess re-population potential of any surviving cells as an indicator of long term potency.
For smooth muscle cell pre-freeze (PF) conditioning studies, 1 hour prior to CP addition, culture media was decanted and 100 μL of fresh media supplemented with caspase 8, 9, or IV was added to each respective well. Samples were then incubated at 37° C. for 1 hour, followed by media removal and addition of 100 μL of CP solution to samples followed by cryopreservation as described above. Following preservation, samples were thawed, diluted, and placed into culture. Following 24 hours recovery, cell viability was assessed.
For smooth muscle cell post-warming (PW) conditioning studies, following thawing and cryopreservation, CP solution was removed or diluted with culture media supplemented with caspase 8, 9, or IV. FIG. 18 illustrates the impact of apoptotic inhibition post-freeze conditioning on human smooth muscle cell survival 1 day following cryopreservation with and without reduced CPA.
For P/P conditioning studies, 1 hour prior to CP addition, culture media was decanted and 100 μL of fresh media supplement with caspase 8, 9, or IV was added to each respective well.

[2] = test system: human hematopoietic stem cells (hHSC); experiment: Human hematopoietic stem cell survival following cryopreservation (Calcein-AM assay); format: cell-based; settings: cryopreserved in DMSO 10%
Description: The studies described in example 4 focus on the collection of cell survival data and the impact of post-thaw conditioning on human stem cells (hHSCs). Specific activities included standard cryopreservation protocol and collection of data (survival and cell death) from samples frozen using 6 unique cryopreservation solutions (Media, M5, M10, Unisol, U5 and U10) and 4 unique modulators (resveratrol (OSI), salubrinal (UPRI), caspase inhibitor (AI) and NAC). Survival was determined at 24 hours post-thaw to allow for the manifestation of any delayed onset cell death pathways to be executed. […]
A series of experiments was conducted to evaluate the performance of several solutions (media, M5, M10, Unisol, U5, and U10) as well as the impact of post-warming (PW) conditioning with the molecular modulators. Cell samples were processed using a standard controlled rate cooling suspension protocol and analyzed following 24 hours to 7 days post thaw for survival and recovery. […] To this end, samples were probed with Calcein-AM, incubated for 30 mins in the dark and then imaged using a Zeiss Axiovert 200 fluorescence microscope and Axiovision software. […]
For hHSC post-warming (PW) conditioning studies, following thawing each sample was diluted with culture media supplemented with the respective molecular modulator added to the dilution media. Samples were incubated in culture for 24 hours, then assessed. […]

[3] = test system: endothelial and smooth muscle cells; experiment: Summary of Examples 2-3: post-thaw survival of endothelial and smooth muscle cells (Calcein-AM assay); format: cell-based, human
Description: For pre-freeze (PF), post-warming (PW) and pre/post (P/P) conditioning studies, molecular modulation agents targeting inhibition of apoptosis (Caspase inhibitor IV, 8, 9 and a combination of Caspases 8 and 9), reduction of free-radical damage (resveratrol and NAC), and activation of the unfolded protein response (salubrinal) were employed as supplements in the media 1 hour prior to freezing (pre-freeze condition) or for 1 day following thawing and CPA removal from frozen samples (post-warming condition).
as §1
The P/P regime was followed by PW using Caspase 8 inhibition or NAC inhibition.

[4] = PF conditioning, U10, U20, U5G10 and U10G10
[5] = P/P conditioning, vs non-conditioned samples
[6] = PF and PW caspase inhibitor conditioning, U10G10 solution

Oc1ccc(C=Cc2cc(O)cc(O)c2)cc1 [resveratrol]
post-thaw viability (human endothelial cells): increase in post-thaw viability | day 1 survival increase over non-treated samples (human endothelial cells; PF conditioning 1 hour): ~2 fold | day 1 cell survival (human endothelial cells; [4]): Improvement | day 1 survival increase over non-treated samples (human endothelial cells; PW conditioning 24 hours): ~2 fold | day 1 cell survival [1, 5]: slight to no improvement in cell survival

C[S+](C)[O-] [DMSO, dimethyl sulfoxide]
cell loss rates [2]: greater than 50%

O=C(/C=C/c1ccccc1)NC(NC(=S)Nc1cccc2cccnc12)C(Cl)(Cl)Cl (stereo not drawn) [salubrinal]
post-thaw viability (human endothelial cells): increase in post-thaw viability | day 1 cell survival (human endothelial cells; [4]): Improvement | day 1 cell survival [1, 5]: slight to no improvement in cell survival | day 1 cell survival ([1]; PW conditioning, vs non-treated matched samples): minimal benefit

CC[C@H](C)[C@H](NC(=O)OCc1ccccc1)C(=O)N[C@@H](CCC(=O)OC)C(=O)N[C@H](C(=O)N[C@@H](CC(=O)OC)C(=O)CF)[C@@H](C)O [Caspase 8 inhibitor] (Cbz-IE(OMe)TD(OMe)-CH2F)
day 1 cell survival / post-thaw viability (human endothelial cells; P/P caspase inhibitor conditioning, Unisol+CPA samples vs non-treated matched samples): improvement in cell survival | cell repopulation / day 3 recovery (human endothelial cells; P/P caspase inhibitor conditioning, Unisol+CPA solutions and DP6): most beneficial; also recorded: marked improvement in all solutions in day 3 recovery | cell recovery and repopulation (overall) (human endothelial cells; [6]): improvement in cell recovery and repopulation | recovery at 3 days post-thaw (human endothelial cells; PF caspase inhibitor conditioning, Unisol+CPA conditions): improvement in recovery | day 3 recovery (human endothelial cells; PW caspase inhibitor conditioning, U10, U20 and U5G10 vs non-treated): marked improvement in day 3 recovery | cell recovery 3 days post-thaw (human endothelial cells; PW caspase inhibitor conditioning, Unisol+CPA conditions): improvement in cell recovery | day 1 cell survival (human endothelial cells; post-warming (PW) caspase inhibitor conditioning 24 hours, Unisol+CPA solutions, vs non-treated matched samples): overall increase in cell survival | day 1 cell survival (human endothelial cells; post-warming (PW) caspase inhibitor conditioning 24 hours, Unisol+CPA solutions, vs non-treated matched samples, listed as Caspase 8): slight improvement in cell survival | cell survival (human endothelial cells; pre/post (P/P) caspase inhibitor conditioning, U10G10 solution, day 1): ~90% | increase over non-treated U10G10 samples ([1]; P/P caspase inhibitor conditioning, U10G10, day 1 survival): ~50% | day 1 survival, % of controls ([1]; P/P caspase inhibitor conditioning, U10G10, listed as Caspase 8): ~60% | day 1 survival, % of controls ([1]; P/P caspase inhibitor conditioning, U10G10, listed as caspase 8): about 70% | day 1 survival, % of controls ([1]; P/P caspase inhibitor conditioning, U10G10, listed as caspase 8 inhibitor): ~70% | cell repopulation / day 3 recovery ([1]; P/P caspase inhibitor conditioning, Unisol+CPA conditions and DP6): marked improvement in day 3 recovery | smooth muscle cell recovery and repopulation (overall) [1, 6]: improvement in smooth muscle cell recovery and repopulation | recovery at 3 days post-thaw ([1]; PW caspase inhibitor conditioning): complete recovery of the samples to pre-freeze controls | day 1 cell survival ([1]; PW caspase inhibitor conditioning, Unisol+CPA solutions): slight increase in cell survival | day 1 post-thaw cell survival and cell recovery ([3]; PF, PW and P/P conditioning, Unisol based solutions): improved | increase in cell survival over non-treated samples ([3]; PW conditioning): ~50% | increase in survival over non-treated samples ([3]; U10G10, P/P conditioning, day 1): > 2 fold
